From US20080306038A1, “Compositions and Methods for Modulating Inflammation Using Fluoroquinolones” (priority 2007, published 2008)

What was measured:
Type in all cases: cell-based, human
[1] = system: VEGF; experiment: LPS-stimulated VEGF production in THP-1 monocytes (multiplex Luminex); design: key to Inhibition of LPS-stimulated VEGF production: “X” signifies significant inhibition at a particular concentration; conditions: for Inhibition of LPS-stimulated VEGF production: 18 hours, THP-1 monocytes
Method: (§1) Human THP-1 monocytes (ATCC TIB 202) were purchased from American Type Culture Collection (Manassas, Va.) and maintained in RPMI 1640 medium (Invitrogen, Carlsbad, Calif.) supplemented with 10% fetal bovine serum (“FBS”, Invitrogen, Carlsbad, Calif.), 100 U/mL of penicillin (Invitrogen, Carlsbad, Calif.), and 100 μg/mL of streptomycin (Invitrogen, Carlsbad, Calif.) at 37° C. in a humidified incubator with 5% CO2. THP-1 cells were pre-cultured in RPMI 1640 medium containing 10% dialyzed serum for 24 h. […] Each treatment was performed in triplicate.
(§2) Samples were analyzed using multiplex bead technology, which utilizes microspheres as the solid support for immunoassays and allows the analysis of all cytokines from each sample (D. A. Vignali, J. Immunol. Methods, Vol. 243, 243-255 (2000)). Sixteen cytokines were measured according to the manufacturer's instructions. Briefly, 50 μL of medium samples were incubated with antibody-coated capture beads overnight at 4° C. Washed beads were further incubated with biotin-labelled anti-human cytokine antibodies for 2 h at room temperature followed by incubation with streptavidin-phycoerythrin for 30 min. Samples were analyzed using Luminex 200™ (Luminex, Austin, Tex.) and Beadview software v1.0 (Upstate Cell Signaling Solutions, Temecula, Calif.). Standard curves of known concentrations of recombinant human cytokines were used to convert fluorescence units (median fluorescence intensity) to cytokine concentration in pg/mL. Only the linear portions of the standard curves were used to quantify cytokine concentrations, and in instances where the fluorescence reading exceeded the linear range of the standard curve, an appropriate dilution was performed to ensure that the concentration was in the linear portion of the curve.
(§3) All cytokine concentrations (pg/mL) were expressed as mean ±standard deviation. Statistical analysis comparing effects of treatment across groups was performed using a one-way ANOVA with a Dunnett's post-hoc comparison test using either vehicle control or LPS treatment as references. For all assays, p≦0.05 was predetermined as the criterion of statistical significance.

[2] = system: IL-12p40; experiment: LPS-stimulated IL-12p40 production in THP-1 monocytes (multiplex Luminex); design: key to Inhibition of LPS-stimulated IL-12p40 production: “X” signifies significant inhibition at a particular concentration; conditions: 18 hours
Method: as §1, §2, §3

[3] = system: IL-1ra; experiment: LPS-stimulated IL-1ra production in THP-1 monocytes (multiplex Luminex); design: key to Inhibition of LPS-stimulated IL-1ra production: “X” signifies significant inhibition at a particular concentration; conditions: for Inhibition of LPS-stimulated IL-1ra production: 18 hours
Method: as §1, §2, §3

[4] = system: IL-1α; experiment: LPS-stimulated IL-1α production in THP-1 monocytes (multiplex Luminex); design: key to Inhibition of LPS-stimulated IL-1α production: “X” signifies significant inhibition at a particular concentration
Method: as §1, §2, §3

[5] = system: MCP-1; experiment: LPS-stimulated MCP-1 production in THP-1 monocytes (multiplex Luminex); design: key to Inhibition of LPS-stimulated MCP-1 production: “X” signifies significant inhibition at a particular concentration
Method: as §1, §2
(§4) All cytokine concentrations (pg/mL) were expressed as mean ±standard deviation. Statistical analysis comparing effects of treatment across groups was performed using a one-way ANOVA with a Dunnett's post-hoc comparison test using either vehicle control or LPS treatment as references. […]

[6] = system: RANTES; experiment: LPS-stimulated RANTES production in THP-1 monocytes (multiplex Luminex); conditions: 0.1-30 μg/mL, 18 hours
Method: as §1
(§5) Samples were analyzed using multiplex bead technology, which utilizes microspheres as the solid support for immunoassays and allows the analysis of all cytokines from each sample (D. A. Vignali, J. Immunol. Methods, Vol. 243, 243-255 (2000)). Sixteen cytokines were measured according to the manufacturer's instructions. Briefly, 50 μL of medium samples were incubated with antibody-coated capture beads overnight at 4° C. […] Samples were analyzed using Luminex 200™ (Luminex, Austin, Tex.) and Beadview software v1.0 (Upstate Cell Signaling Solutions, Temecula, Calif.). Standard curves of known concentrations of recombinant human cytokines were used to convert fluorescence units (median fluorescence intensity) to cytokine concentration in pg/mL. […]
(§6) All cytokine concentrations (pg/mL) were expressed as mean ±standard deviation. […]

[7] = system: IL-8; experiment: LPS-stimulated IL-8 production in THP-1 monocytes (multiplex Luminex); design: key to Inhibition of LPS-stimulated IL-8 production: “X” signifies significant inhibition at a particular concentration
Method: as §1, §2, §3

[8] = system: IL-1β; experiment: LPS-stimulated IL-1β production in THP-1 monocytes (multiplex Luminex); design: key to Inhibition of LPS-stimulated IL-1β production: “X” signifies significant inhibition at a particular concentration
Method: as §1, §2, §3

[9] = system: Fractalkine; experiment: LPS-stimulated fractalkine production in THP-1 monocytes (multiplex Luminex); conditions: 0.1-30 μg/mL, 18 hours
Method: as §1, §5, §6

[10] = system: GM-CSF; experiment: LPS-stimulated GM-CSF production in THP-1 monocytes (multiplex Luminex); design: key to Inhibition of LPS-stimulated GM-CSF production: “X” signifies significant inhibition at a particular concentration
Method: as §1, §2, §4

[11] = system: IP-10; experiment: LPS-stimulated IP-10 production in THP-1 monocytes (multiplex Luminex); design: key to Inhibition of LPS-stimulated IP-10 production: “X” signifies significant inhibition at a particular concentration
Method: as §1, §2, §3

[12] = system: G-CSF; experiment: LPS-stimulated G-CSF production in THP-1 monocytes (multiplex Luminex); design: key to Inhibition of LPS-stimulated G-CSF production: “X” signifies significant inhibition at a particular concentration
Method: as §1, §2, §3

[13] = system: IL-6; experiment: LPS-stimulated IL-6 production in THP-1 monocytes (multiplex Luminex); design: key to Inhibition of LPS-stimulated IL-6 production: “X” signifies significant inhibition at a particular concentration
Method: as §1, §2, §3

[14] = system: MIP-1α; experiment: LPS-stimulated MIP-1α production in THP-1 monocytes (multiplex Luminex); design: key to Inhibition of LPS-stimulated MIP-1α production: “X” signifies significant inhibition at a particular concentration
Method: as §1, §2, §3

[15] = 30 μg/mL compound + 10 μg/mL LPS
[16] = FIG. 2, LPS-stimulated THP-1 monocytes
[17] = 1 μg/mL compound + 10 μg/mL LPS, 18 hours, THP-1 monocytes
[18] = 10 μg/mL compound + 10 μg/mL LPS, 18 hours, THP-1 monocytes
[19] = 30 μg/mL compound + 10 μg/mL LPS, 18 hours, THP-1 monocytes
[20] = LPS-induced, THP-1 monocytes, 18 hours

N[C@@H]1CCCCN(c2c(F)cc3c(=O)c(C(=O)O)cn(C4CC4)c3c2Cl)C1 [Compound Having Formula IV]
Inhibition of LPS-stimulated VEGF production ([1]; 10 μg/mL compound + 10 μg/mL LPS): X | Inhibition of LPS-stimulated VEGF production [1, 15]: X | Relative potency of compound having Formula IV and moxifloxacin on VEGF [1, 16]: better potency than moxifloxacin | Inhibition of LPS-stimulated IL-12p40 production [2, 15]: X | Concentration at which a significant inhibitory effect was observed for IL-12p40 ([2]; LPS-induced): 30 µg/mL | Inhibition of LPS-stimulated IL-1ra production ([3]; 1 μg/mL compound + 10 μg/mL LPS, THP-1 monocytes): X | Inhibition of LPS-stimulated IL-1ra production ([3]; 10 μg/mL compound + 10 μg/mL LPS, THP-1 monocytes): X | Inhibition of LPS-stimulated IL-1ra production ([3]; 30 μg/mL compound + 10 μg/mL LPS, THP-1 monocytes): X | Relative potency of compound having Formula IV and moxifloxacin on IL-1ra [3, 16]: better potency than moxifloxacin | Concentration with significant inhibitory effect on IL-1ra ([3]; LPS-induced, THP-1 monocytes): 1000 ng/mL | Inhibition of LPS-stimulated IL-1α production ([4]; 0.1 μg/mL compound + 10 μg/mL LPS, 18 hours, THP-1 monocytes): X | Inhibition of LPS-stimulated IL-1α production [4, 17]: X | Inhibition of LPS-stimulated IL-1α production [4, 18]: X | Inhibition of LPS-stimulated IL-1α production [4, 19]: X | Relative potency of compound having Formula IV and moxifloxacin on IL-1α [4, 16]: better potency than moxifloxacin | Lowest concentration with significant inhibitory effect on IL-1α ([4]; LPS-induced, THP-1 monocytes): 100 ng/mL | Concentration at which a significant inhibitory effect was observed for IL-1α [4, 20]: 0.1 µg/mL | Inhibition of LPS-stimulated MCP-1 production [5, 19]: X | Comparison of moxifloxacin and compound having Formula IV, effect on MCP-1 after LPS stimulation ([5]; FIG. 1, THP-1 monocytes): comparable effects | Concentration at which a significant inhibitory effect was observed for MCP-1 [5, 20]: 30 µg/mL | Effect on LPS-stimulated production of RANTES [6]: Neither moxifloxacin nor compound having Formula IV altered | Inhibition of LPS-stimulated IL-8 production [7, 19]: X | Comparison of moxifloxacin and compound having Formula IV, effect on IL-8 after LPS stimulation ([7]; FIG. 1, THP-1 monocytes): comparable effects | Concentration at which a significant inhibitory effect was observed for IL-8 [7, 20]: 30 µg/mL | Inhibition of LPS-stimulated IL-1β production [8, 19]: X | Comparison of moxifloxacin and compound having Formula IV, effect on IL-1β after LPS stimulation ([8]; FIG. 1, THP-1 monocytes): comparable effects | Concentration at which a significant inhibitory effect was observed for IL-1β [8, 20]: 30 µg/mL | Effect on LPS-stimulated production of fractalkine [9]: Neither moxifloxacin nor compound having Formula IV altered | Inhibition of LPS-stimulated GM-CSF production [10, 19]: X | Comparison of moxifloxacin and compound having Formula IV, effect on GM-CSF after LPS stimulation ([10]; FIG. 1, THP-1 monocytes): comparable effects | Concentration at which a significant inhibitory effect was observed for GM-CSF [10, 20]: 30 µg/mL | Inhibition of LPS-stimulated IP-10 production [11, 19]: X | Comparison of moxifloxacin and compound having Formula IV, effect on IP-10 after LPS stimulation ([11]; FIG. 1, THP-1 monocytes): comparable effects | Concentration at which a significant inhibitory effect was observed for IP-10 [11, 20]: 30 µg/mL | Inhibition of LPS-stimulated G-CSF production [12, 17]: X | Inhibition of LPS-stimulated G-CSF production [12, 18]: X | Inhibition of LPS-stimulated G-CSF production [12, 19]: X | Relative potency of compound having Formula IV and moxifloxacin on G-CSF [12, 16]: better potency than moxifloxacin | Concentration with significant inhibitory effect on G-CSF ([12]; LPS-induced, THP-1 monocytes): 1000 ng/mL | Concentration at which a significant inhibitory effect was observed for G-CSF [12, 20]: 1 µg/mL | Inhibition of LPS-stimulated IL-6 production [13, 17]: X | Inhibition of LPS-stimulated IL-6 production [13, 18]: X | Inhibition of LPS-stimulated IL-6 production [13, 19]: X | Relative potency of compound having Formula IV and moxifloxacin on IL-6 [13, 16]: better potency than moxifloxacin | Concentration with significant inhibitory effect on IL-6 ([13]; LPS-induced, THP-1 monocytes): 1000 ng/mL | Concentration at which a significant inhibitory effect was observed for IL-6 [13, 20]: 1 µg/mL | Inhibition of LPS-stimulated MIP-1α production [14, 19]: X | Comparison of moxifloxacin and compound having Formula IV, effect on MIP-1α after LPS stimulation ([14]; FIG. 1, THP-1 monocytes): comparable effects | Concentration at which a significant inhibitory effect was observed for MIP-1α [14, 20]: 30 µg/mL
